Measured values published in US20230293630A1, “Coronavirus T Cell Epitopes and Uses Thereof” (priority 2020, published 2023).
Where two headings read alike, the source gives them in different places.

System: SARS-CoV-2-specific CD4+ T cells (OX40+CD137+) in PBMC
Assay type: cell-based, human
[1] = CD4+ T cell epitopes identified by AIM assay, share of donors responding
[2] = CD4+ T cell epitopes identified by AIM assay, sum of response per responding donor
[3] = CD4+ T cell epitopes identified by AIM assay, total response
[4] = CD4+ T cell epitopes identified by AIM assay, percent of tested donors responding
[5] = CD4+ T cell epitopes identified by AIM assay, total response summed over donors

Row | Sequence | Frequency of response (%) [1] | Magnitude by # of responding donors [2] | Sum of response [3] | Frequency of response (%) [4] | Sum of response [5] | Frequency of response (%) | Magnitude by # of responding donors | Sum of response
1 | EGALNTPKDHIGTRN | 14% | 185 | 369 |  |  |  |  | 
2 | GMEVTPSGTWLTYTG | 8% | 380 | 380 |  |  |  |  | 
3 | SASFSTFKCYGVSPT | 8% | 294 | 294 |  |  |  |  | 
4 | FKIYSKHTPINLVRD | 18% | 484 | 967 |  |  |  |  | 
5 | AIKLDDKDPNFKDQV | 8% | 585 | 585 |  |  |  |  | 
6 | TVTLLPAADLDDFSK | 7% | 648 | 648 |  |  |  |  | 
7 | VYYPDKVFRSSVLHS | 15% | 198 | 395 |  |  |  |  | 
8 | PDLNGDVVAIDYKHY | 15% | 215 | 430 |  |  |  |  | 
9 | VTKNSKVQIGEYTFE | 8% | 118 | 118 |  |  |  |  | 
10 | TNSRIKASMPTTIAK | 8% | 360 | 360 |  |  |  |  | 
11 | QSINFVRIIMRLWLC [SEQ ID NO 252] |  | 168 |  | 21% | 505 |  |  | 
12 | AENSVAYSNNSIAIP | 17% | 403 | 805 |  |  |  |  | 
13 | TDEMIAQYTSALLAG | 9% | 745 | 745 |  |  |  |  | 
14 | LGVYYHKNNKSWMES | 9% | 259 | 259 |  |  |  |  | 
15 | AVITREVGFVVPGLP | 9% | 682 | 682 |  |  |  |  | 
16 | SNFRVQPTESIVRFP |  | 243 |  | 9% | 243 |  |  | 
17 | IQWMVMFTPLVPFWI | 8% | 603 | 603 |  |  |  |  | 
18 | DVFHLYLQYIRKLHD | 7% | 247 | 247 |  |  |  |  | 
19 | VSSQCVNLTTRTQLP | 8% | 274 | 274 |  |  |  |  | 

Row | Sequence | Frequency of response (%) [1] | Magnitude by # of responding donors [2] | Sum of response [3] | Frequency of response (%) [4] | Sum of response [5] | Frequency of response (%) | Magnitude by # of responding donors | Sum of response
20 | CNLLLLFVTVYSHLL | 18% | 212 | 424 |  |  |  |  | 
21 | GTILTRPLLESELVI | 17% | 161 | 322 |  |  |  |  | 
22 | RFASVYAWNRKRISN | 27% | 241 | 722 |  |  |  |  | 
23 | FYSKWYIRVGARKSA [SEQ ID NO 255] |  |  |  |  |  | 55% | 468 | 2805
24 | ELDKYFKNHTSPDVD |  | 361 |  | 7% | 361 |  |  | 
25 | EHVTFFIYNKIVDEP | 14% | 139 | 277 |  |  |  |  | 
26 | VNNSYECDIPIGAGI | 11% | 398 | 398 |  |  |  |  | 
27 | SHRFYRLANECAQVL | 6% | 535 | 535 |  |  |  |  | 
28 | RPLLESELVIGAVIL | 8% | 183 | 183 |  |  |  |  | 
29 | TRRIRGGDGKMKDLS | 8% | 151 | 151 |  |  |  |  | 
30 | GINASVVNIQKEIDR |  | 267 |  | 8% | 267 |  |  | 
31 | KNTQEVFAQVKQIYK | 8% | 125 | 125 |  |  |  |  | 
32 | CVDEAGSKSPIQYID | 9% | 327 | 327 |  |  |  |  | 
33 | EIYQAGSTPCNGVEG | 8% | 1121 | 1121 |  |  |  |  | 
34 | YCIDGALLTKSSEYK | 7% | 119 | 119 |  |  |  |  | 
35 | YMSALNHTKKWKYPQ | 9% | 109 | 109 |  |  |  |  | 
36 | WDLTAFGLVAEWFLA | 8% | 134 | 134 |  |  |  |  | 
37 | KLNDLCFTNVYADSF | 8% | 130 | 130 |  |  |  |  | 
38 | TLRVEAFEYYHTTDP | 18% | 318 | 635 |  |  |  |  | 

Row | Sequence | Frequency of response (%) [1] | Magnitude by # of responding donors [2] | Sum of response [3] | Frequency of response (%) [4] | Sum of response [5] | Frequency of response (%) | Magnitude by # of responding donors | Sum of response
39 | CPFGEVFNATRFASV |  | 108 |  | 9% | 108 |  |  | 
40 | NLLLQYGSFCTQLNR |  | 1140 |  | 31% | 4560 |  |  | 
41 | LPDPSKPSKRSFIED | 8% | 109 | 109 |  |  |  |  | 
42 | GKQGNFKNLREFVFK | 9% | 129 | 129 |  |  |  |  | 
43 | SFIEDLLFNKVTLAD |  | 406 |  | 17% | 812 |  |  | 
44 | GYKKPASRELKVTFF | 15% | 246 | 491 |  |  |  |  | 
45 | PLIELCVDEAGSKSP | 18% | 171 | 341 |  |  |  |  | 
46 | AGFIKQYGDCLGDIA | 25% | 817 | 2450 |  |  |  |  | 
47 | SLQSCTQHQPYVVDD | 9% | 1222 | 1222 |  |  |  |  | 
48 | TQAFGRRGPEQTQGN | 8% | 151 | 151 |  |  |  |  | 
49 | LLWPVTLACFVLAAV | 17% | 260 | 520 |  |  |  |  | 
50 | AQYTSALLAGTITSG |  | 336 |  | 9% | 336 |  |  | 
51 | TDTGVEHVTFFIYNK | 7% | 118 | 118 |  |  |  |  | 
52 | ESDDYIATNGPLKVG | 8% | 133 | 133 |  |  |  |  | 
53 | IWVATEGALNTPKDH | 7% | 200 | 200 |  |  |  |  | 
54 | FSNSGSDVLYQPPQT | 8% | 149 | 149 |  |  |  |  | 
55 | KEITVATSRTLSYYK | 54% | 516 | 3615 |  |  |  |  | 
56 | SALEPLVDLPIGINI | 9% | 167 | 167 |  |  |  |  | 
